Test results from patent publication US20180042851A1, “SOLID DISPERSIONS” (FMC Corporation, priority 2015, published 2018).
Where two headings read alike, the source gives them in different places.

Experimental: In vitro dissolution studies of the lovastatin:alginate solid dispersions produced above were carried out using the paddle method equipped with a USP II apparatus at 37.5±0.5° C. and a paddle speed of 50 rpm. The appropriate amount of lovastatin solid dispersion (containing 60 mg lovastatin) was added into 900 mL dissolution medium (0.05M pH6.8 phosphate buffer with 0.1% SDS as non-sink condition). Samples (6 mL) were collected at predetermined time intervals and immediately filtered through a 0.15 μm syringe filter, the first 2 mL of filtrate was discarded and the remaining filtrate was collected for analysis at 237 nm using a UV spectrophotometer (UV-2000, UNIC Instrument Corp., Shanghai, China). Meanwhile, an equal volume of fresh dissolution medium was added.

Cumulative Release (%) (0 minutes, 60 mg lovastatin in 900 mL pH6.8 phosphate buffer with 0.1% SDS, 37.5° C., 50 rpm): 0%
Cumulative Release (%) (5 minutes, pH6.8 phosphate buffer with 0.1% SDS, non-sink): 13.52%
Cumulative Release (%) (10 minutes, pH6.8 phosphate buffer with 0.1% SDS, non-sink): 18.29%
Cumulative Release (%) (15 minutes, pH6.8 phosphate buffer with 0.1% SDS, non-sink): 22.81%
Cumulative Release (%) (30 minutes, pH6.8 phosphate buffer with 0.1% SDS, non-sink): 29.77%
SMILES: CC[C@H](C)C(=O)O[C@H]1C[C@@H](C)C=C2C=C[C@H](C)[C@H](CC[C@@H]3C[C@@H](O)CC(=O)O3)[C@H]21 [Drug Alone, lovastatin]
